According to patent EP0987025A1, “Pharmaceitical composition or composition package containing a pyrimidine nucleoside analogue and a purine nucleoside analogue” (priority 1998, dated 2000):
Like-named read-outs stand apart in the source and are kept apart here.

Legend:
[1] = test system: LP-BM5; type: in vivo, C57BL/6 mice; settings: at 10 weeks after infection
From the text: LP-BM5 virus was provided by Robert Yetter (Veternas Administration Hospital, Baltimore, MD) and was maintained in a persistently infected SC- 1 cell line as described (Hosier D.E., Yetter R.A., Morse H.C. III, "Functional T lymphocytes are required for a murine retrovirus induced immunodeficiency disease (MAIDS)", J. Exp. Med. 1987; 165:1737-42). C57BL/6 female mice were purchased from Nossan, Milan, Italy and were used at 5 weeks of age. Animals were infected by means of two successive intraperitoneal injections at 24-hr intervals. In the experiments reported three different virus preparations were used.
Mice were housed at 22±1°C with a 12-hr light-dark cycle, 60±5% humidity, and 12 air changes/hr.
First, the efficacy of 2-fluoro-ara-AMP (F-araAMP, Fludara) in inhibiting murine AIDS (MAIDS), a disease characterized by a lymphoproliferative disorder (lymphadenopathy and splenomegaly), associated with severe immunodeficiency and hypergammaglobulinemia, was evaluated. The disease develops in some strains of mice (C57BL/6) that are infected with a murine leukemia virus mixture termed LP-BM5. In the first preliminary experiments (after about 4 months from infection) LP-BMS infected animals were treated with three different concentrations of F-ara-AMP: 0.065 mg/mouse, 0.325 mg/mouse, 0.650 mg/mouse. The animals of each group were treated intraperitoneally for 3 days a week and for 3 weeks. At the end of the treatment animals were killed and splenomegaly, lymphadenopathy and hypergammaglobulinemia were evaluated.
Infected mice after 7 weeks from infection were treated intraperitoneally with Fludara as follows: • 1. 0.65 mg/mouse once a day for 4 days a week (total dose 7.8 mg/mouse); • 2. 0.65 mg/mouse twice a day for 5 days a week (total dose 19.5 mg/mouse); • 3. […]

[2] = Stability in drinking water; type: physicochemical; settings: 0.25 mg/ml, room temperature, changed every 3 days
Protocol: AZT (Sigma) was administered ad libitum in the drinking water at a concentration of 0.25 mg/ml. AZT was stable in the drinking water at room temperature and was changed every 3 days.

[3] = test system: BM5d proviral DNA; test: PCR analysis of BM5d proviral DNA in spleen, lymph node and bone marrow; type: in vivo, C57BL/6 mice; settings: at 10 weeks after infection
From the text: The following oligonucleotide primers were used for the amplification of a 141-bp gag gene of defective virus genome (BM5d); 5' primer, 5'-AACCTTCCTCCTCTGCCA-3' (sense) corresponding to nucleotides 1456-1473 and 3' primer, 5'-ACCACCTCTCGGGCTTTC-3' (antisense) corresponding to nucleotides 1579-1596 of the BM5d genome (Chat topadhyay SK, Sengupta D.N., FredricksonT.N., Morse H.C. III, Hartley J.W., "Characteristics and contributions of defective, ecotropic and mink cell focus-inducing viruses in a retrovirus induced immunodeficiency syndrome of mice.", J..Virol. 1991; 65: 4232-41.). A second pair or oligonucleotide primers was used for amplification of 203-bp of the mouse glucose-6-phosphate dehydrogenase (G6PD) gene. This amplification served as an internal control (endogenous standard) for evaluation of the relative BM5d proviral DNA. The nucleotide primers for the amplification were as follows: 5' primer, 5'-[…]-3' (sense) and 3' primer, 5'-[…]-3' (antisense) (Kurdi-Haidar B., Mason P.J., Berrebi A., et al., "Origin and spread of the glucose-6-phosphate dehydrogenase variant (G6PD-Mediterranean) in the Middle East.", Am. J. Hum. Genet. 1990; 47:1013-19.).
Probe D30, which was derived from the 137-bp Smal-Xhol p12 gag fragment of the defective virus genome (DU5H), was kindly provided by P. Jolicoeur (Montreal, Canada) (Aziz D.C., Hanna Z., Jolicoeur P., "Severe immunodeficiency disease induced by a defective murine leukemia virus.", Nature 1989; 338: 505-08).
Total cellular DNA was isolated from the spleens, lymph nodes and bone marrow of uninfected, infected and infected/treated mice by the sodium iodide isopropanol method.
PCR amplifications were performed in a 25 µl final volume using the Perkin Elmer GeneAMP kit (1 mM MgCl2, 2.5 U AmpliTag) with 0.3 µg total cellular DNA and 20 pmol of each primer.
PCR reaction were carried out for 37 cycles at 95°C for 30 sec, 58°C for 30 sec and 72°C for 30 sec with a final extension at 72°C for 10 min.
Products were analyzed by electrophoresis on agarose gel, blotted and hybridized with either the ^32P-labeled D30 or G6PD probe.
The intensity of radiolabeled bands was analyzed and quantified in a GS-250 Molecular Imager™ (Bio-Rad, Hercules, CA, USA). For BM5d proviral DNA detection the relative integration was determined by dividing the intensity of the BM5d bands by the intensity of G6PD bands (Fraternale A., Casabianca A., Rossi L., et al., "Inhibition of murine AIDS by combination of AZT and dideoxycytidine 5'-triphosphate.", J. Acquir. Imm. Def Syndr. and Hum. Retrovir. 1996; 12:164-73). The percentages of inhibition were referred to the infected mice.

[4] = treatment a: AZT 250 mg/l in drinking water for 6 weeks
[5] = treatment b: AZT 250 mg/l in drinking water for 10 weeks

Cc1cn([C@H]2C[C@H](N=[N+]=[N-])[C@@H](CO)O2)c(=O)[nH]c1=O [AZT, 3'-Azido-3'-desoxythymidin]
Lymph node w. [1, 4]: 1.060 ± 0.240 g | Spleen w. [1, 4]: 0.520 ± 0.070 g | Lymph node w. [1, 5]: 0.550 ± 0.330 g | Spleen w. [1, 5]: 0.580 ± 0.150 g | stability in the drinking water [2]: stable | bone marrow, BM5d proviral DNA copy number (E) [3, 4]: 28,500±3,535 Proviral DNA molecules per 0.3 µg of total cellular DNA | bone marrow, inhibition of BM5d (% vs. Infected) (F) [3, 4]: 4.135±5.847% | lymph node, BM5d proviral DNA copy number (C) [3, 4]: 30,966±7,169 Proviral DNA molecules per 0.3 µg of total cellular DNA | lymph node, inhibition of BM5d (% vs. Infected) (D) [3, 4]: 85.89±3.26 % | spleen, BM5d proviral DNA copy number (A) [3, 4]: 135,000±20,000 Proviral DNA molecules per 0.3 µg of total cellular DNA | spleen, inhibition of BM5d (% vs. Infected) (B) [3, 4]: 15.14±9.60% | bone marrow, BM5d proviral DNA copy number (E) [3, 5]: 13,761±8,766 Proviral DNA molecules per 0.3 µg of total cellular DNA | bone marrow, inhibition of BM5d (% vs. Infected) (F) [3, 5]: 51.51±30.83 % | spleen, BM5d proviral DNA copy number (A) [3, 5]: 39,669±19,026 Proviral DNA molecules per 0.3 µg of total cellular DNA | spleen, inhibition of BM5d (% vs. Infected) (B) [3, 5]: 73.30±12.53 %
